The results in this text go back to patent publication US20050020565A1, “CCK-1 receptor modulators” (priority 2003, published 2005).

Data set [1] concerns the target T1, CCK-1 receptor (Homo sapiens, UniProt P32238).
T1 construct: expressed in transfected cells; membranes
T1 sequence (P32238 1-428): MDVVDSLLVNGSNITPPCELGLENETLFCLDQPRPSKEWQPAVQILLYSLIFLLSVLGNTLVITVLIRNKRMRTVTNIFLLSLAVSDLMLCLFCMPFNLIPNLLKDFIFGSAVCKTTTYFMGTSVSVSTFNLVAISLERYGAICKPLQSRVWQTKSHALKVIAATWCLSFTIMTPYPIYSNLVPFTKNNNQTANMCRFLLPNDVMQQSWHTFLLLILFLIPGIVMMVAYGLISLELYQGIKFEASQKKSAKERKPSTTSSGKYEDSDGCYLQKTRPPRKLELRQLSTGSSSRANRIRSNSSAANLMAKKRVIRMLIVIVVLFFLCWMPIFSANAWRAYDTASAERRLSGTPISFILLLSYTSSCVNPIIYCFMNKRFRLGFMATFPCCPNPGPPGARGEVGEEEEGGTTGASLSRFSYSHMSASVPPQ
As to the kind of experiment: CCK-1 receptor radioligand binding assay ([125I]-BH-CCK-8S displacement, membranes of stably transfected CHO-K1 cells). The settings on record: membranes of CHO-K1 cells stably transfected with CCK-1 receptor, 0.3 μM PD-134,308 present. How it is done:
CHO-K1 cells that had undergone-stable transfection with the CCK-1 receptor were grown in DMEM supplemented with L-glutamine (2 mM), penicillin (50 units/mL) and streptomycin (50 μg/mL). Cells were cultured under continuous G418 selection (2 mM) and were harvested using a rubber cell scraper. CHO-K1 cells were sub-cultured a maximum of ten times before being reseeded from the original stocks.
Membranes were prepared from the stably transfected CHO-K1 cells. Frozen cell pellets (−40° C.) were thawed in 14 mL of buffer A (10 mM HEPES, 130 mM NaCl, 4.7 mM KCl, 5 mM MgCl, 1 mM EGTA and 15.4 mg/100 mL bacitracin at pH 7.2), adapted from Harper et al. (Br. J. Pharmacol. (1996) 118, pp 1717-1726). The thawed pellets were homogenized using a Polytron PT-10 (7×1 s). The homogenates were centrifuged for 5 min at 1500 rpm (600×g), and the resulting pellets were discarded. The supernatants were re-centrifuged in order to collect the receptor-membrane pellets (25 min 15,000 rpm; 39,800×g), which were re-suspended in buffer A.
All assays were conducted in 96-well plates (GF/B millipore filter plates) using buffer A, with 0.3 μM PD-134,308, for the dilutions. The CCK-2 receptor ligand was included to eliminate the contribution of this receptor subtype to the binding. For the optimal cell number determination experiments 20 pM [1251]-BH—CCK-8S (50 μL 60 pM solution) was incubated with a range of cell concentrations (2.5×105 to 12.5×10^5 cells/well) in a total volume of 150 μL. Total binding of [1251]-BH—CCK-8S was determined in the presence of 15 μL of buffer A. Non-specific binding of [1 251]-BH—CCK-8S was determined in the presence of 15 μL of 100 μM 2-naphthalenesulphonyl L-aspartyl-(2-phenethyl)amide (2-NAP: see R. A. Hull et al., Br. J. Pharmacol. (1993) 108, pp 734-740), a CCK-1 receptor selective antagonist that is structurally unrelated to the radioligand [1251]-BH—CCK-8S. The assay preparation was incubated for 1 h at 21±3° C., and then the assay was terminated upon rapid filtration of the preparation under reduced pressure. The loaded filters were washed three times using undiluted PBS (100 μL), and then the residues were transferred to 5 mL scintillation tubes. Bound radioactivity was determined using a gamma counter (count time=1 min). From these experiments a cell concentration of 1 pellet in 40 mL of buffer (2.5×10^6 cells/mL) was chosen for use in other assays (below). To validate the radioligand concentration and incubation time for the assay, saturation and kinetic binding studies were also conducted (see M. F. Morton, The Pharmacological Characterization of Cholecystokinin Receptors in the Human Gastrointestinal Tract. PhD Thesis, University of London, 2000). The affinity of novel compounds was estimated by incubating membrane preparations with 15 μL of competing ligand (0.1 pM-1 mM) for 60 min at 21±3° C. The assay was then terminated according to the procedure outlined above.
The pKi values were determined using the equation of Cheng and Prusoff (Biochem. Pharmacol. (1973) 22, pp 3099-3108): [formula]
To circumvent problems associated with computer-assisted data analysis of compounds with low affinity, the data obtained in the current study were weighted according to a method described by Morton (2000). In brief, 100% and 0% specific binding were defined independently using total binding and binding obtained in the presence of a high concentration of the reference antagonist, 2-NAP.

Compound `COc1ccc(-n2nc(C[C@H](C(=O)[O-])c3cccc(C)c3)cc2-c2ccc(Cl)c(Cl)c2)cc1.[Na+]` (stereo in doubt) [Example 1] had a melting point of 295.5 to 297.5 °C. `COc1ccc(-n2nc(C[C@H](C(=O)[O-])c3cccc(C)c3)cc2-c2ccc(Cl)c(Cl)c2)cc1.[Na+]` (stereo in doubt) [Example 505] had a melting point of 280 to 285 °C. With `CON(C)C(=O)c1ccc(Cl)c(Cl)c1` [Example 511, 3,4-Dichloro-N-methoxy-N-methyl-benzamide], the melting point lay in the range of 39.5 to 43.2 °C. `COc1ccc(-n2nc(C[C@@H](c3cccc(C)c3)c3nnn[nH]3)cc2-c2ccc(Cl)c(Cl)c2)cc1` [Example 129] showed a Ki in data set [1] of 15.8 nM. For the compound `Cc1ccc(-n2nc(CC(C(=O)O)c3cccc(C)c3)cc2-c2cccc(N(C)C)c2)cc1` (centres unmarked) [Example 91], the Ki in data set [1] is 12.6 nM.

Regarding `COc1ccc(-n2nc(/C=C(/C(=O)O)c3cccc(C)c3)cc2-c2ccc(Cl)c(Cl)c2)cc1` [Example 75], the inhibitory constant (Ki) in data set [1] was 79.4 nM. As for `COc1ccc(-n2nc(CC(C(=O)O)c3cccc(Cl)c3)cc2-c2ccc(C)cc2)cc1` (centres unmarked) [Example 7], in data set [1], the Ki was 7.94 nM. In data set [1], `COc1ccc(-n2nc(/C=C(/C(=O)O)c3ccc(C)cc3)cc2-c2ccc(Cl)c(Cl)c2)cc1` [Example 363] had a Ki of 794 nM. This Ki lies about 100-fold higher than the previous one.

In the case of `Cc1cccc([C@H](Cc2cc(-c3ccc(Cl)c(Cl)c3)n(-c3ccc(O)cc3)n2)C(=O)O)c1` [Example 328], the affinity in data set [1] corresponds to a Ki of 20 nM. As for `Cc1ccc(-c2cc(CC(CSc3ncn[nH]3)c3cccc(C)c3)nn2-c2ccc(C)cc2)cc1` (centres unmarked) [Example 335], the affinity in data set [1] corresponds to a Ki of 31.6 nM. This Ki is about 1.6-fold higher than that of the compound before. Take `Cc1cccc(C(Cc2cc(-c3ccc(Cl)c(Cl)c3)nn2C)C(=O)O)c1` (centres unmarked) [Example 48]: the affinity in data set [1] corresponds to a Ki of 79.4 nM.
